Data: patent publication US12698534B2, “Systems and methods for characterizing and treating disease” (Arizona Board of Regents on Behalf of the University of …, priority 2019, dated 2026)

How the values were obtained:
L1-ORF1p = L1-ORF1p expression by immunoblotting in lung cells treated with NCL antagonists; format: cell-based, human
Experimental: Cell lines were purchased from the American Type Culture Collection (ATCC). Cells were grown in a humidified environment at 37° C. with 5% CO2. Cell lines were confirmed to be free of mycoplasma contamination (MycoAlert; Lonza). NSCLC cell lines (NCI-H460, NCI-H520, NCI-H1299, and A549) were grown in RPMI medium supplemented with fetal bovine serum at a concentration of 10%, […] penicillin and […] streptomycin (Life Technologies). The human bronchial epithelial cell lines BEAS-2B and BZR were grown in LHC-9 medium (Thermo Fisher Scientific). Verification of all cell line identities was performed by short tandem repeat (STR) sequencing using reference databases from ATCC (Genetics Core, University of Arizona, AZ). […] All protein concentrations were determined using the bicinchoninic acid assay (Thermo Fisher Scientific).
Total cell lysates were resolved by SDS-polyacrylamide gel electrophoresis and electrotransferred onto polyvinylidene fluoride membranes (Millipore) in Tris-glycine buffer containing 20% methanol. Proteins were detected by immunoblotting. […]

LINE-1 = LINE-1 mRNA and ORF1p in extracellular vesicles of BaP-stimulated H460 cells; format: cell-based, human; settings: 48 h, various concentrations
Experimental: EV isolation: Media were centrifuged at 500×g for 5 min to remove cells and concentrated using a 100 kDa MWCO Amicon filter. Samples were then centrifuged at 25,000×g for 30 min to pellet apoptotic vesicles and cellular debris followed by ultracentrifugation at 100,000×g for 2 h. The EV pellet was washed in PBS and either re-centrifuged at 100,000×g or loaded onto an iodixanol gradient.
Total RNA was harvested (Zymo) and subjected to post-elution DNAse digestion. A cDNA was created using oligo d (T) primers. Gene expression analysis was performed via qPCR using probe-based detection. Expression was expressed as a fold change from the EV-free medium (EFM).

[1] = system: Lung tissues in ORFeus^LSL mice; assay: Lung histology and general toxicity after intratracheal instillation; format: in vivo
Experimental: (§1) A BioLite Intubation System (Braintree Scientific Inc, USA) was used for intratracheal instillation of ORFeus^LSL mice (29-38 g) anesthetized with ketamine and xylazine (100 mg/kg and 10 mg/kg, respectively). All mice were genotyped to confirm genetic identity. Control mice were given one dose of 5×10^10 PFU adenoCRE recombinase dissolved in H2O or DMSO. The optimal adenovirus dose was defined empirically as a dose that only modestly activated the transgene. […] Mice were sacrificed by cervical dislocation after euthanasia with CO2 one-week after treatment. Tissues were collected and stored at 4° C. in RNA later (Thermo Fisher Scientific, CA).
Lung sections were snap-frozen in OCT. Tissues were fixed with cold acetone and stained with hematoxylin and eosin. Samples were evaluated blindly by two pathologists.

[2] = system: ORFeus^LSL transgene (human LINE-1); assay: ORFeus LINE-1 mRNA by RT-qPCR in mouse tissues; format: in vivo, mice
Experimental: as §1, with “DMSO.” for “DMSO. The optimal adenovirus dose was defined empirically as a dose that only modestly activated the transgene.”
RNA was extracted using the RNeasy Plus Mini Kit (Qiagen, MD). An aliquot of 250 ng RNA was reverse transcribed into first-strand cDNA using SuperScript® III (Invitrogen, CA). RT-qPCR was carried out for LINE-1 and nine genes within its oncogenic regulatory network. […] GAPDH was used as a control. Each reaction included 4.0 μL of cDNA, 0.5 μL of gene-specific primer pairs, and 5.0 μL SyberGreen dye and ddH2O to a final volume of 20 μL. Amplifications were completed using StepOnePlus™ RT-qPCR System and fold changes calculated using 2^−ΔΔct.

[3] = system: Human 460 large cell lung carcinoma cells; assay: BaP exposure of H460 cells: cell count and trypan blue viability; format: cell-based; settings: for cell number at conclusion of exposure, mean (±SEM): 48 hour
Source text: (§2) Human 460 large cell lung carcinoma cells were authenticated by the UA tissue culture core facility and then cultured in RPMI media (Gibco) supplemented with 10% exosome-free FBS. One day before exposure, cells were counted, seeded, and allowed to attach overnight. Prior to each exposure, medium was removed and cells were washed with PBS to remove cellular debris and extracellular vesicles. After exposure, culture medium was harvested for exosome collection, cells were detached with trypsin-EDTA (Gibco), counted via hemocytometer, and cell viability was assessed using trypan blue exclusion.

LINE-1 mRNA = LINE-1 mRNA and RNA in cells and exosomes by RT-qPCR; format: cell-based, Human; settings: H460 exosomes
Source text: as §2
(§3) Nucleic acids were extracted from cell and exosome pellets using the Quick DNA-RNA Miniprep Plus. RNA was subjected to an additional DNAseI digestion on-column (RNA from cells) or prior to reverse transcription (RNA from exosomes; Turbo DNA-free; Invitrogen). Following isolation DNA and RNA quantity and integrity were assessed using the Cytation X system. LINE-1 mRNA was detected in equal volumes of exosome RNA using OneStep RT-qPCR (NEB). To assess cellular LINE-1 mRNA levels, LINE-1 mRNA was normalized to B-Actin mRNA and expressed as a fold change from control using the Pfaffl technique. […] Briefly, the fluorescence units from the reverse transcription control (RTC; no reverse transcriptase enzyme) for each sample was subtracted from the complete sample amplification and the remaining fluorescence units were divided by cell number. The resulting values approximate the amount of LINE-1 or BActin mRNA present in exosomes that is also normalized by cell number. LINE-1 DNA copies were quantified using absolute qPCR quantification. Briefly, known copy numbers of plasmids bearing the LINE-1 sequence were used to create a standard curve, which could then be used to calculated copy number from samples. These copy numbers were then divided by cell number to yield the number of LINE-1 DNA copies per cell (cellular DNA) and the number of exosome LINE-1 DNA copies per cell (exosome DNA).

LINE-1 DNA = LINE-1 DNA copies in cells and exosomes by absolute qPCR; format: cell-based, Human; settings: for exosome LINE-1 DNA copies released per cell, mean (±SE): H460 exosomes
Source text: as §2, §3

[4] = system: H460 large cell lung cancer cells; assay: Exosome quantity and size by Nanosight NTA after BaP exposure; format: cell-based, Human; parameters: number of exosomes released per cell: dose or concentration left out as unconfirmed
Source text: as §2
Cell media was centrifuged at 500×g for 5 minutes to remove cells and large debris and then stored at −80° C. To isolate exosomes, cell medium was centrifuged at 25,000×g for 1.5 hours to remove apoptotic bodies and other large extracellular vesicles. To precipitate exosomes, polyethylene glycol (PEG) MW 6,000 was added to the supernatant to a final concentration of 10% (w/v), and centrifuged again at 15,000×g for 30 minutes. Each exosome pellet was resuspended in 2 mL PBS, which was then subdivided into fractions for Nanosight Nanoparticle Tracking Analysis (NTA), nucleic acid extraction, and protein extraction. Nucleic acids and proteins present outside of exosomes were enzymatically digested to prevent confounding of exosome cargo analysis. Exosome fractions designated for nucleic acid analysis were treated with DNAseI for 30 minutes at 37° C. and RNAseA for 5 minutes at RT and then supplemented with RNA Secure (Invitrogen) prior to lysis. Exosome fractions designated for protein analysis were treated with proteinaseK for 30 minutes at 37° C. Following enzymatic digestion, exosomes were pelleted a final time by addition of PEG 6,000 to 10%, and centrifugation at 15,000×g for 15 minutes. To assess exosome size and quantity, Nanosight NTA was performed. Each sample was read five times and the sample grand mean and standard error for each nanoparticle size bin were reported. Nanosight experiments were performed in technical duplicate. […]

[5] = target: the molecule itself; assay: Western blot of EV iodixanol gradient fractions (self-association)

5′-GGTGGTGGTGGTTGTGGTGGTGGTGG-3′ (SEQ ID NO:2) (DNA, backbone not given here) [AS1411, oligodeoxynucleotide DNA aptamer targeting nucleolin]
L1-ORF1p protein expression (L1-ORF1p; NCI-H520 cells, high concentrations (20 μM)): without effect | L1-ORF1p protein expression (L1-ORF1p; any of the cell lines (data not shown)): without effect

c1ccc2c(c1)cc1ccc3cccc4ccc2c1c34 [BaP, benzo[a]pyrene]
EV LINE-1 levels versus cellular LINE-1 levels (LINE-1): mirrored within EVs | toxic effects in treated mice ([1]; ORFeus^LSL mice, at any time): No dramatic toxic effects | lung histology: leukocytic infiltration ([1]; mouse, in vivo): significant leukocytic infiltration into the lungs | lung histology: vessel congestion and mononuclear cell infiltration ([1]; mouse, in vivo): pulmonary vessel congestion with focal-to-diffuse mononuclear cell infiltration into parenchyma | ORFeus LINE-1 mRNA expression in lung ([2]; male and female lungs, one week after treatment): significantly increased expression of the transgene | activation of the LINE-1 transgene in other tissues ([2]; stomach, heart, kidney, liver, intestine): only stomach, but not heart, kidney, liver or intestine, showed activation of the LINE-1 transgene | cell proliferation ([3]; 48 hour exposure): reduce cell proliferation in a dose-dependent manner | cell number at conclusion of exposure, mean (±SEM) ([3]; 0.5 μM): 14.0±2.3 million cells | cell number at conclusion of exposure, mean (±SEM) ([3]; 1 μM): 11.1±1.9 million cells | exosome LINE-1 mRNA, Pfaffl method normalized to B-Actin mRNA (LINE-1 mRNA): did not observe significant increases | LINE-1 mRNA export in exosomes per cell (LINE-1 mRNA; 0.25 μM): approximately two-fold | LINE-1 mRNA export in exosomes per cell (LINE-1 mRNA; 0.5 μM): approximately two-fold | LINE-1 mRNA export in exosomes per cell (LINE-1 mRNA; 1 μM): decreased export | quantity of total exosome RNA (LINE-1 mRNA; 1 μM): 83.26 ± 16.94 ng | exosome B-Actin mRNA released per cell (LINE-1 mRNA; fluorescence units adjusted by cell number): dose-dependent increases | cellular LINE-1 DNA copies per cell (LINE-1 DNA; H460 cells): did not significantly change | exosome LINE-1 DNA copies released per cell, mean (±SE) (LINE-1 DNA; 0.25 μM): 61.04±31.3 copies | exosome LINE-1 DNA copies released per cell, mean (±SE) (LINE-1 DNA; 0.5 μM): 62.43±28.98 copies | exosome LINE-1 DNA copies released per cell, mean (±SE) (LINE-1 DNA; 1 μM): 85.96±51.21 copies | size range in which more exosomes were produced ([4]; 0.25 μM): 64.5 to 71.5 nM | size range in which more exosomes were produced ([4]; 1 μM): 61.5 to 77.5 nM | number of exosomes released per cell ([4]; particles 30-150 nm normalized to cell number): increased

B1: human LINE-1 ORF1 protein (L1-ORF1p) (other, UniProt Q9UN81 1-338, looked up)
chain: MGKKQNRKTGNSKTQSASPPPKERSSSPATEQSWMENDFDELREEGFRRSNYSELREDIQTKGKEVENFEKNLEECITRITNTEKCLKELMELKTKARELREECRSLRSRCDQLEERVSAMEDEMNEMKREGKFREKRIKRNEQSLQEIWDYVKRPNLRLIGVPESDVENGTKLENTLQDIIQENFPNLARQANVQIQEIQRTPQRYSSRRATPRHIIVRFTKVEMKEKMLRAAREKGRVTLKGKPIRLTADLSAETLQARREWGPIFNILKEKNFQPRISYPAKLSFISEGEIKYFIDKQMLRDFVTTRPALKELLKEALNMERNNRYQPLQNHAKM
notes: Endogenous protein detected on Western blots of human cell lysates and EV extracts; Seen as a monomer, a dimer and higher multimers
binding result [5]: binds
